Read-outs that look alike come from different tables or passages of the source.
Legend:
acne [1] = experiment: topical treatment of acne with antibiotics mixed with DMSO; type: in vivo; details: antibiotic mixed with DMSO
From the text: These antibiotics including, amikacin, cefamandole, cefoxitin, erythromycin, tetracycline, tobramycin, vancomycin, lincomycin, and carbenicillin.

acne [2] = details: oral, long-term; Plewig et al.; cited from earlier work
[3] = cited from earlier work
DNA polymerase = details: suppresses viral replication; cited from earlier work
rats = experiment: acute oral toxicity of ara-A in rats; type: in vivo; details: extrapolated from LD50 in rats and mice
Protocol: Regarding toxicity or other side effects on the patient of the proposed preparation, extensive pharmacologic and toxicity studies on ara-A have been carried out in animals and in man. […] This dose level indicates a low order of toxicity to a single parenteral dose. The acute oral LD50 in both rats and mice is greater than […]. This amount would be equivalent to more than […] (one and two thirds pound) in an average 150 pound person. […] In the form used in the present invention and with treatment by topical application, it is highly unlikely that any toxic side effects of ara-A would be observed.

DNA viruses = details: in vitro and in vivo (animal models or man), cited from earlier work
[4] = intravenous form; cited from earlier work
[5] = recovery of unchanged ara-A from the DMSO and water solution; type: physicochemical; details: under the conditions of preparation
Protocol: There are no special procedures involved in preparing of the preparation for the treatment of acne of the present invention. The demineralized water and DMSO can be mixed first, and the ara-A (and benzocaine if used) is then dissolved in the DMSO and water solution. The ara-A can be added to the pure DMSO, and water can be added last. When water and DMSO are mixed, the solution becomes warm because there is a positive heat of solution. […] Ara-A can be recovered from the DMSO and water solution virtually 100% as unchanged ara-A.

[6] = solubility of ara-A in DMSO/water versus water; type: physicochemical; details: DMSO in the solvent carrier medium
normal skin [7] = details: applied to skin; cited from earlier work
[8] = animals and humans; cited from earlier work
normal skin [9] = details: in vivo
Protocol: This rash, however, usually disappears shortly thereafter with no ill effects. Annals of the New York Academy of Sciences, Vol. […], (1967). S. W. Jacob, E. E. Rosenbaum, and D. C. Wood, eds., Vol. 1, Dimethyl Sulfoxide, 99 (1971), and Vol. 243, Annals of the New York Academy of Sciences, (1975). In the present invention DMSO is diluted to 70% with demineralized water before ara-A is added.

acne lesions = experiment: topical treatment of acne with ara-A and DMSO; type: in vivo; details: benzocaine added to ara-A/DMSO medication
From the text: Treatment of acne with the disclosed preparation should begin as soon as the first sign of the lesion (pimple) is apparent. […] The medication should be applied every two to four hours for the first two days during waking hours.

[10] = in vivo
From the text: Also one to two percent high viscosity carboxymethylcellulose, Carbopol (manufactured by Firestone Company, Akron, Ohio), or other suitable gelling agent might be added to the mixture to provide a gel which may be preferred for topical application.

CC[C@H]1OC(=O)[C@H](C)[C@@H](O[C@H]2C[C@@](C)(OC)[C@@H](O)[C@H](C)O2)[C@H](C)[C@@H](O[C@@H]2O[C@H](C)C[C@H](N(C)C)[C@H]2O)[C@](C)(O)C[C@@H](C)C(=O)[C@H](C)[C@@H](O)[C@]1(C)O [erythromycin]
effectiveness in topical treatment of acne (acne [1]): effective in the topical treatment of acne | help in the management of acne (acne [2]): help in the management of acne

CC1(C)S[C@@H]2[C@H](NC(=O)C(C(=O)O)c3ccccc3)C(=O)N2[C@H]1C(=O)O (some centres unmarked) [carbenicillin]
effectiveness in topical treatment of acne (acne [1]): effective in the topical treatment of acne

CN[C@H](CC(C)C)C(=O)N[C@H]1C(=O)N[C@@H](CC(N)=O)C(=O)N[C@H]2C(=O)N[C@H]3C(=O)N[C@H](C(=O)N[C@H](C(=O)O)c4cc(O)cc(O)c4-c4cc3ccc4O)[C@H](O)c3ccc(c(Cl)c3)Oc3cc2cc(c3O[C@@H]2O[C@H](CO)[C@@H](O)[C@H](O)[C@H]2O[C@H]2C[C@](C)(N)[C@H](O)[C@H](C)O2)Oc2ccc(cc2Cl)[C@H]1O [vancomycin]
effectiveness in topical treatment of acne (acne [1]): effective in the topical treatment of acne

Nc1ncnc2c1ncn2[C@@H]1O[C@H](CO)[C@@H](O)[C@@H]1O [ara-A, adenine-9- -D-arabinofuranoside]
toxicity through topical application [3]: not possible to demonstrate toxicity | redness and irritation after topical application ([3]; in some cases): redness and slight irritation has been noted | inhibition of DNA polymerase (DNA polymerase): inhibits the enzyme DNA polymerase | amount equivalent to the acute oral LD50 in an average 150 pound person (rats): more than 750 grams | antiviral activity (DNA viruses): active against a broad spectrum of DNA viruses | antiviral activity (DNA viruses; listed as Ara-A): in some cases to be effective against Herpes simplex virus | side effects of massive acute overdosage [4]: without any serious side effects | chemical reaction between ara-A and DMSO [5]: no chemical reaction | amount of ara-A dissolved versus DMSO concentration [6]: The higher the concentration of DMSO in the solvent carrier medium, the greater is the amount of ara-A that can be dissolved

Cn1nnnc1SCC1=C(C(=O)O)N2C(=O)[C@@H](NC(=O)[C@H](O)c3ccccc3)[C@H]2SC1 [cefamandole]
effectiveness in topical treatment of acne (acne [1]): effective in the topical treatment of acne

CO[C@@]1(NC(=O)Cc2cccs2)C(=O)N2C(C(=O)O)=C(COC(N)=O)CS[C@@H]21 [cefoxitin]
effectiveness in topical treatment of acne (acne [1]): effective in the topical treatment of acne

CCC[C@@H]1C[C@@H](C(=O)N[C@@H]([C@H]2O[C@H](SC)[C@H](O)[C@@H](O)[C@H]2O)[C@@H](C)O)N(C)C1 [lincomycin]
effectiveness in topical treatment of acne (acne [1]): effective in the topical treatment of acne | help in the management of acne (acne [2]): help in the management of acne

CN(C)C1C(=O)C(C(N)=O)=C(O)C2(O)C(=O)C3=C(O)c4c(O)cccc4C(C)(O)C3CC12 (centres unmarked) [tetracycline]
effectiveness in topical treatment of acne (acne [1]): effective in the topical treatment of acne | help in the management of acne (acne [2]): help in the management of acne

C[S+](C)[O-] [DMSO, dimethyl sulfoxide]
skin reaction to undiluted DMSO (normal skin [7]): sometimes may cause an itching or burning sensation with redness or rash | toxicity [8]: essentially nontoxic | skin irritation at 70% DMSO (normal skin [9]): usually non-irritating to normal skin

NCC[C@H](O)C(=O)N[C@@H]1C[C@H](N)[C@@H](O[C@H]2O[C@H](CN)[C@@H](O)[C@H](O)[C@H]2O)[C@H](O)[C@H]1O[C@H]1O[C@H](CO)[C@@H](O)[C@H](N)[C@H]1O [amikacin]
effectiveness in topical treatment of acne (acne [1]): effective in the topical treatment of acne

NC[C@H]1O[C@H](O[C@H]2[C@H](O)[C@@H](O[C@H]3O[C@H](CO)[C@@H](O)[C@H](N)[C@H]3O)[C@H](N)C[C@@H]2N)[C@H](N)C[C@@H]1O [tobramycin]
effectiveness in topical treatment of acne (acne [1]): effective in the topical treatment of acne

CCOC(=O)c1ccc(N)cc1 [benzocaine]
influence of benzocaine on effectiveness of the medication (acne lesions): does not impair the effectiveness of the medication | deleterious effect on the patient [10]: Nor does the benzocaine appear to have any deleterious effect on the patient

— patent US4507287A, “Preparation and method for the treatment of acne” (priority 1983, dated 1985)
